In US20240425482A1, “PYRROLIDINE DERIVATIVES AS DDRS INHIBITORS” (CHIESI FARMACEUTICI S.P.A., priority 2021, published 2024):

What was measured:
DDR2 = DDR2 (Homo sapiens (Human), UniProt Q16832); experiment: DDR2 LanthaScreen Europium Kinase Binding assay; settings: binding; 5 nM DDR2, 10 nM Kinase Tracer 178, 1 hour at rt; Ki from IC50 by Cheng-Prusoff; read-out: Ki DDR2
Method: (§1) DDR1 and DDR2 binding assays were performed using Life Technologies LanthaScreen™ Europium Kinase Binding assay. The compounds were incubated with 5 nM DDR1 (Carna Biosciences) or 5 nM DDR2 (Life Technologies) for 1 hour at rt in white 384-well OptiPlate (PerkinElmer), containing 20 nM or 10 nM Kinase Tracer 178 respectively and 2 nM Europium labelled anti-GST antibody (Life Technologies) in assay buffer (50 mM HEPES pH 7.5, 10 mM MgCI2, 1 mM EGTA and 0.01% BRIJ35). The ratio of fluorescence emission 665 nm/615 nm after excitation at 340 nm was obtained using the Tecan Spark 20M plate reader. IC50 values were determined in GraphPad Prism 7.0 software, using 4 parameter model: log(inhibitor) vs. response. IC50 values were converted in Ki using the Cheng-Prusoff equation (Ki=IC50/(1+[Tracer]/Kd).
(§2) Compounds C1 and C2 were tested in the same binding assay described above.

DDR1 = DDR1 (Homo sapiens (Human), UniProt Q08345); experiment: DDR1 LanthaScreen Europium Kinase Binding assay; settings: binding; 5 nM DDR1, 20 nM Kinase Tracer 178, 1 hour at rt; Ki from IC50 by Cheng-Prusoff; read-out: Ki DDR1
DDR1, sequence (Q08345 19-913): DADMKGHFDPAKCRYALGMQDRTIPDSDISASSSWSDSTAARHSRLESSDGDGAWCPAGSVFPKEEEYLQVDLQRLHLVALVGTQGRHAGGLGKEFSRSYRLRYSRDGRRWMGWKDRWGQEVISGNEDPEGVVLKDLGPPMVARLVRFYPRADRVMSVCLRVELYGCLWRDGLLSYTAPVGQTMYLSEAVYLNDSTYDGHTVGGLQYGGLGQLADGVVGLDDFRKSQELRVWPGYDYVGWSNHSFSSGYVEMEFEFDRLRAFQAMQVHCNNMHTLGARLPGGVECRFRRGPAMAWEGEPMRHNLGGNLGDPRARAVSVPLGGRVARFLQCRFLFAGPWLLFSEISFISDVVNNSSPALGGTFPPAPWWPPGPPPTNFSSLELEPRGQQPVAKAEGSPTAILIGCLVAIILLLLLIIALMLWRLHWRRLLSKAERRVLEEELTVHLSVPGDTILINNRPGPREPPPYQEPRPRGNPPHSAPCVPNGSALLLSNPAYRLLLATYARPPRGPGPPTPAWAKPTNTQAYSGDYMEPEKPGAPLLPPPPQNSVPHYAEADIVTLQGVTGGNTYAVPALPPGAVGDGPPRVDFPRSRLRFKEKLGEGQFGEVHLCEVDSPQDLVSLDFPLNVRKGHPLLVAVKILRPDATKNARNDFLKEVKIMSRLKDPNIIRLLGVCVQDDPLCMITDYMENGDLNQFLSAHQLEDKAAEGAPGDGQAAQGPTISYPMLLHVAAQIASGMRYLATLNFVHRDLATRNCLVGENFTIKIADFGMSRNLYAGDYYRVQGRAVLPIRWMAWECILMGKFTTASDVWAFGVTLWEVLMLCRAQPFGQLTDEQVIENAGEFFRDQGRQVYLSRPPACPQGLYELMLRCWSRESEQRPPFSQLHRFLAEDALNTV
Method: as §1, §2

DDR2, sequence (Q16832 22-855): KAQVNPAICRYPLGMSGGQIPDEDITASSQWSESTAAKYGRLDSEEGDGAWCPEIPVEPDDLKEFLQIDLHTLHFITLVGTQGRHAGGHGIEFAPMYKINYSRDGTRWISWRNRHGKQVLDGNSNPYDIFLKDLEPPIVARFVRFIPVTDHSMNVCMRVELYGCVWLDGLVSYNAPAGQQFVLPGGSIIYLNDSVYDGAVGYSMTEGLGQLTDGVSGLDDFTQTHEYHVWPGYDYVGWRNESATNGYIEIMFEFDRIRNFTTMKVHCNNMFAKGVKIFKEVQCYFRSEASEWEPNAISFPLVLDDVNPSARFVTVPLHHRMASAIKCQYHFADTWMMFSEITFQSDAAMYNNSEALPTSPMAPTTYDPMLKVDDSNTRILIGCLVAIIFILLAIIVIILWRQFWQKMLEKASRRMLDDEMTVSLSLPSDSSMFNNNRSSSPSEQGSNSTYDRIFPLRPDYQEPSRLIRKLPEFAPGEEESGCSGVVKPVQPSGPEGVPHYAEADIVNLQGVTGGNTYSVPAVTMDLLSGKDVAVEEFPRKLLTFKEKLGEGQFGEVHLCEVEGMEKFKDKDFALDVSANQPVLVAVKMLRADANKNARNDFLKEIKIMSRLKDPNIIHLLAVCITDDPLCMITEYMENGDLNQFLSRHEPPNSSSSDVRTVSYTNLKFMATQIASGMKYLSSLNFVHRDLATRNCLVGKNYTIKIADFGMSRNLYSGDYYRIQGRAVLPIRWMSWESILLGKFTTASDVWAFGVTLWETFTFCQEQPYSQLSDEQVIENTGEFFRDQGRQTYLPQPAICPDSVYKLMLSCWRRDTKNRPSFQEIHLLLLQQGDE

Ki (DDR2) [nM]	Ki (DDR1) [nM]	Compound
25 to 60	10 to 25	Cc1ccc(C(=O)Nc2cccc(C(F)(F)F)c2)cc1C1CCN(c2cncc(Br)c2)C1 (stereo not drawn) [Example 13, 3-(1-(5-bromopyridin-3-yl)pyrrolidin-3-yl)-4-methyl-N-(3-(trifluoromethyl)phenyl)benzamide]
< 10	< 10	Cc1ccc(C(=O)Nc2cccc(C(F)(F)F)c2)cc1C1CCN(c2cncc(OCCN(C)C)c2)C1 (stereo not drawn) [Example 23, 3-(1-(5-(2-(dimethylamino)ethoxy)pyridin-3-yl)pyrrolidin-3-yl)-4-methyl-N-(3-(trifluoromethyl)phenyl)benzamide]
25 to 60	10 to 25	Cc1ccc(C(=O)Nc2cccc(C(F)(F)F)c2)cc1[C@@H]1CCN(c2ccc(Nc3cnn(C)c3)nc2)C1 [Example 44, (S)-4-methyl-3-(1-(6-((1-methyl-1H-pyrazol-4-yl)amino)pyridin-3-yl)pyrrolidin-3-yl)-N-(3-(trifluoromethyl)phenyl)benzamide]
